The values below come from PMC3701070 (PLoS ONE, 2013).

The subject of data set [1] is phospho-MEK1/2 (pMEK) in ES-2 ovarian carcinoma (BRAF^V600E) cells. The data set can be described thus: Western blot, pMEK in ES-2 cells. Format: cell-based. As to conditions: Homo sapiens; ES-2 cells (BRAF^V600E), 1 h, immunoblot; read-out: IC50 for pMEK inhibition. The method, then: Cells were lysed in 25 mM Tris-HCl pH 7.5, 2 mM EDTA, 2 mM EGTA, 1% Triton X-100, 0.1% SDS, 50 mM sodium-β-glycerophosphate, 2 mM Na3VO4, 12.5 mM sodium pyrophosphate, 2× Complete EDTA-free mini protease inhibitor tablets (Roche), 2× phosphatase inhibitor cocktails I and II (Sigma-Aldrich). Protein concentrations were determined by Bio-Rad DC™ or dye-based protein assays and lysates were resolved by SDS-PAGE (Invitrogen NuPAGE®) and transferred to PVDF membranes. Membranes were blocked with Odyssey® (LI-COR Biosciences) blocking buffer and incubated with primary antibodies overnight at 4°C. Blots were washed with PBS containing 0.1% Tween-20, incubated with secondary antibodies, and washed again prior to signal detection on a LI-COR Odyssey® reader.
Signals were quantified and used to determine IC50 values. (PPTX) Click here for additional data file.

A further data set has as its target T1, PKD2 (h) (Homo sapiens, UniProt Q9BZL6).
T1 construct: purchased Millipore
The data set is described as follows: Kinase panel (Millipore) enzyme activity. It counts as biochemical.

A further data set concerns the target T2, SIK (h) (Homo sapiens, UniProt P57059).
T2 construct: purchased Millipore
The data set can be described thus: Kinase panel (Millipore) enzyme activity. Format: biochemical.

A short description of data set [2]: Pharmacokinetic analysis in tumor-bearing mice. The note with it: 30 mg/kg oral once daily, blood. How it is done:
Compound concentrations were determined from flash-frozen hemolyzed blood samples (blood:water ratio of 1∶1) or tumor homogenates (tumor:water ratio of 1∶4) by HPLC/MS-MS analysis.

Another data set deals with A375P cells. The data set can be described thus: Caspase-3/7 activation. Format: cell-based, human. As to conditions: A375P (BRAF^V600E). The method, then:
(§1) At selected times, caspase-3/7 activity and cell density were determined using Caspase-Glo® (Promega) and CellTiter-Glo® reagents, respectively, using a PerkinElmer EnVision™ reader. Caspase activity was normalized to cell density and percent induction over the DMSO control was determined.
(§2) Cell cycle phases are shown in stacked format as a percentage of the total population. […] (PPTX) Click here for additional data file.

The test system of another data set is SK-MEL-28 cells. The data set can be described thus: Caspase-3/7 activation. Format: cell-based, human. As to conditions: SK-MEL-28 (BRAF^V600E). How it is done: as §1, §2

The structures appear in SMILES notation.

T1 sequence (Q9BZL6 whole entry): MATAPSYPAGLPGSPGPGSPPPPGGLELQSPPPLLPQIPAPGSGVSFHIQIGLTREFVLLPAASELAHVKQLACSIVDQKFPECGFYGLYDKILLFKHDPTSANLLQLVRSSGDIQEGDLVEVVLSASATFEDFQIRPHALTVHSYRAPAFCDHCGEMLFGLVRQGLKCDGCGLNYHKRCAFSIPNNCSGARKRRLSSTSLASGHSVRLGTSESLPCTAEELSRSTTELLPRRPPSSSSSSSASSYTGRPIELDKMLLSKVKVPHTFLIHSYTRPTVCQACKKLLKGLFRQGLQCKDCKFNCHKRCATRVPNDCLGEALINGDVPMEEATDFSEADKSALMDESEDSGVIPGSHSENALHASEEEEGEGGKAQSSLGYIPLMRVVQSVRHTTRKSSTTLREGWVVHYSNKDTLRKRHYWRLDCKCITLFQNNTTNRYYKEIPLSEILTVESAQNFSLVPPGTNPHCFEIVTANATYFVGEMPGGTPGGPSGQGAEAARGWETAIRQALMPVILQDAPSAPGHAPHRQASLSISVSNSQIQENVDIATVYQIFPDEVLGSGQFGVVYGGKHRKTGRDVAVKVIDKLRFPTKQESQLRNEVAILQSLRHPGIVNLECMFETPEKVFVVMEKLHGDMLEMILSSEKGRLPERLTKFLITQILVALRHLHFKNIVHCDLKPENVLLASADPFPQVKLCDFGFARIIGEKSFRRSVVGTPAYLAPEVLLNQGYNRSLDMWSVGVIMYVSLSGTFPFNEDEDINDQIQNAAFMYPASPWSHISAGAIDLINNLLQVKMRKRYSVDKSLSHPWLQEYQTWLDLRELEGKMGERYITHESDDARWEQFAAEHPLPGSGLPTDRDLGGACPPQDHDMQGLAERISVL
T2 sequence (P57059 whole entry): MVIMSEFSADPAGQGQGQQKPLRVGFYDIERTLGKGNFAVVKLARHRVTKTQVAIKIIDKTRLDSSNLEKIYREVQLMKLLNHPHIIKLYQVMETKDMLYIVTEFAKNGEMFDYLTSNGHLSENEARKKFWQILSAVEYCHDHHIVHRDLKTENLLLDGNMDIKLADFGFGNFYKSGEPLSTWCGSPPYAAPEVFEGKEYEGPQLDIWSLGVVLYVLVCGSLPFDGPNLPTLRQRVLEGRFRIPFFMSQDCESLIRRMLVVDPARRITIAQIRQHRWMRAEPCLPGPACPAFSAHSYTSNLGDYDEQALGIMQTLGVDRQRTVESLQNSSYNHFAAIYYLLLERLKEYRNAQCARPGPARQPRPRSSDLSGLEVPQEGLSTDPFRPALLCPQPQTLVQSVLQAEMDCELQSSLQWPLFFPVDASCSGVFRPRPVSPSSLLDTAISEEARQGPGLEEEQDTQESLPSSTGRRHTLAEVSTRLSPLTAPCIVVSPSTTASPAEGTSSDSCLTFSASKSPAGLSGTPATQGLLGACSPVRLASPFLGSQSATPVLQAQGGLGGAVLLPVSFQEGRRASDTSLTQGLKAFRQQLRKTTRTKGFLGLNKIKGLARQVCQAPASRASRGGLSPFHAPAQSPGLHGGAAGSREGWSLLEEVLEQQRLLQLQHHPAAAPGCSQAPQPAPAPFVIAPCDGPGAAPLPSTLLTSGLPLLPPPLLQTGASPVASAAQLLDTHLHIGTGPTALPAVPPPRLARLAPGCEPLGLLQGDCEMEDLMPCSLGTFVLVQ

On to `CC(C)(C)c1nc(-c2cccc(NS(=O)(=O)c3c(F)cccc3F)c2F)c(-c2ccnc(N)n2)s1` [dabrafenib], for which the IC50 (in general, the concentration at which inhibition is half-maximal) in data set [1] was 6 nM; at PKD2 (h) it was 57 nM; against SIK (h) it was 27 nM. In addition, the oral bioavailability entry in data set [2] is “orally bioavailable”. Further, the “caspase-3/7 activation and apoptosis” value was “induced caspase-3/7 activation and apoptosis” with A375P cells; “induced caspase-3/7 activation and apoptosis” with SK-MEL-28 cells.
